For one assay, the target named is T1, human GPR40 (Homo sapiens, UniProt O14842).
T1 construct: expressed in transfected cells; host or cells: CHO cells
T1 sequence (O14842 whole entry): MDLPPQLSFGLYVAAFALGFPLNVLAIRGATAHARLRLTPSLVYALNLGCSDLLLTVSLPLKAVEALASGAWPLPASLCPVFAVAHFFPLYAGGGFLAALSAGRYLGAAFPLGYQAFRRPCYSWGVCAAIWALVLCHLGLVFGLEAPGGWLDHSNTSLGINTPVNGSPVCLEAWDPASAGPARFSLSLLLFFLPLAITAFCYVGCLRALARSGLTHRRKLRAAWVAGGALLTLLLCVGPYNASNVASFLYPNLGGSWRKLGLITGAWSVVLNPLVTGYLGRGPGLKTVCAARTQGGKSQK
The assay is described as follows: Cell-based aequorin assay using human GPR40. The conditions noted are these: CHO cells stably transfected with GPR40 and Aequorin; 0.01% HSA; aequorin luminescence; read-out: Relative EC50. The procedure: Cell-based aequorin assays were employed to characterize the modulatory activity of compounds on the GPR40 signaling pathway. In an exemplary assay, CHO cells were stably transfected with both GPR40 and Aequorin (Euroscreen). Cells were detached from the tissue culture dish with 2 mL of trypsin (0.25% (w/v)). Trypsinization was halted with 28 mL of Hanks Buffered Salt Solution containing 20 mM Hepes (H/HBSS) and 0.01% fatty acid-free human serum albumin (HSA). Coelantrazine is added to 1 ug/mL, and the cells were incubated for 2 hours at room temperature. Compounds were dissolved in DMSO for preparation of 10 mM stock solutions. Compounds were diluted in H/HBSS containing 0.01% HSA. Serial dilutions of the test compounds were prepared to determine dose response.
Aequorin luminescence measurements were made using an EG&G Berthold 96-well luminometer, and the response was measured over a 20 second interval after cells and compounds were mixed. The maximum relative light units was plotted to determine dose response. The EC50 (effective concentration to reach 50% maximal response) was determined from the dose response plot.
Table 1 presents representative data (EC50 values) obtained for exemplary compounds of the invention for the relative activation of human GPR40. […]
Take `CC#CC(CC(=O)O)c1ccc(OCc2ccc3c(c2)C[C@@H](c2ccc(Cl)cc2)O3)cc1` (single isomer, unassigned) [Example 76]: the EC50 was in the range of 10 to 100 nM.

`CC#CC(CC(=O)O)c1ccc(OCc2ccc3c(c2)C[C@H](c2ccc(Cl)cc2)O3)cc1` (single isomer, unassigned) [Example 77]: the half-maximal effective concentration (EC50) fell in the range of 10 to 100 nM. Same read-out and setting: under `CC1(C)CCC(C)(C)c2cc(COc3ccc([C@H](CC(=O)O)c4ncco4)cc3)ccc21` [Example 12, (S)-3-Oxazol-2-yl-3-[4-(5,5,8,8-tetramethyl-5,6,7,8-tetrahydro-naphthalen-2-ylmethoxy)-phenyl]-propionic acid] stands 100 to 1000 nM; under `CC#C[C@@H](CC(=O)O)c1ccc(OCc2ccc3c(c2)C(C)(C)CCC3(C)C)cc1` [Example 19, (S)-3-(4-((5,5,8,8-Tetramethyl-5,6,7,8-tetrahydronaphthalen-2-yl)methoxy)phenyl)hex-4-ynoic acid], 1000 to 10000 nM. On the same count and under the same terms, under `CC#C[C@H](CC(=O)O)c1ccc(OCc2ccc3c(c2)C(C)(C)CCC3(C)C)cc1` [Example 20, (R)-3-(4-((5,5,8,8-Tetramethyl-5,6,7,8-tetrahydronaphthalen-2-yl)methoxy)phenyl)hex-4-ynoic acid] stands 1000 to 10000 nM.

For the compound `CCC1(CC)CCC(C)(C)c2ccc(COc3ccc([C@H](CC(=O)O)c4ccon4)cc3)cc21` [Example 72, (S)-3-(4-((8,8-diethyl-5,5-dimethyl-5,6,7,8-tetrahydronaphthalen-2-yl)methoxy)phenyl)-3-(isoxazol-3-yl)propanoic acid], the half-maximal effective concentration (EC50) is 10 to 100 nM. `CCC1(CC)CCC(C)(C)c2ccc(COc3ccc([C@H](CC(=O)O)c4nnnn4C)cc3)cc21` [Example 73, (S)-3-(4-((8,8-diethyl-5,5-dimethyl-5,6,7,8-tetrahydronaphthalen-2-yl)methoxy)phenyl)-3-(1-methyl-1H-tetrazol-5-yl)propanoic acid]: the EC50 lay within 10 to 1000 nM.

On to `CC1(C)CCC(C)(C)c2cc(COc3ccc([C@H](CC(=O)O)C4=NOCC4)cc3)ccc21` [Example 74, 3-(4,5-Dihydroisoxazol-3-yl)-3-(4-((5,5,8,8-tetramethyl-5,6,7,8-tetrahydronaphthalen-2-yl)methoxy)phenyl)propanoic acid], for which the EC50 is 10 to 100 nM.

For `Cn1ccnc1[C@@H](CC(=O)O)c1ccc(OCc2ccc3c(c2)CCCC3(C)C)cc1` [Example 75, (S)-3-(4-((5,5-dimethyl-5,6,7,8-tetrahydronaphthalen-2-yl)methoxy)phenyl)-3-(1-methyl-1H-imidazol-2-yl)propanoic acid], the concentration for a half-maximal effect (EC50) fell in the range of 100 to 1000 nM. Still for that read-out and setting: under `CC/C(C)=C/[C@@H](CC(=O)O)c1ccc(OCc2ccc3c(c2)C(C)(C)CCC3(C)C)cc1` [Example 78, (R,E)-5-Methyl-3-(4-((5,5,8,8-tetramethyl-5,6,7,8-tetrahydronaphthalen-2-yl)methoxy)phenyl)hept-4-enoic acid] stands 100 to 1000 nM; under `CC/C(C)=C/[C@H](CC(=O)O)c1ccc(OCc2ccc3c(c2)C(C)(C)CCC3(C)C)cc1` [Example 79, (S,E)-5-Methyl-3-(4-((5,5,8,8-tetramethyl-5,6,7,8-tetrahydronaphthalen-2-yl)methoxy)phenyl)hept-4-enoic acid], 1000 to 10000 nM; under `Cn1ccnc1[C@@H](CC(=O)O)c1ccc(OCc2ccc3c(c2)C(C)(C)CC3(C)C)cc1` [Example 80, (S)-3-(1-Methyl-1H-imidazol-2-yl)-3-(4-((1,1,3,3-tetramethyl-2,3-dihydro-1H-inden-5-yl)methoxy)phenyl)propanoic acid], 100 to 1000 nM. On the same count and under the same terms, as for `Cn1ccnc1[C@@H](CC(=O)O)c1ccc(OCc2ccc3c(c2)C(=O)CCC3(C)C)cc1` [Example 81, (S)-3-(4-((5,5-Dimethyl-8-oxo-5,6,7,8-tetrahydronaphthalen-2-yl)methoxy)phenyl)-3-(1-methyl-1H-imidazol-2-yl)propanoic acid], the figure is 1000 to 10000 nM; as for `Cn1ccnc1[C@@H](CC(=O)O)c1ccc(OCc2ccc3c(c2)OC(F)(F)O3)cc1` [Example 82, (S)-3-(4-((2,2-difluorobenzo[d][1,3]dioxol-5-yl)methoxy)phenyl)-3-(1-methyl-1H-imidazol-2-yl)propanoic acid], 100 to 1000 nM. Turning to `CC1(C)CCC(C)(C)c2cc(COc3ccc([C@@H](/C=C/Cc4ccccc4)CC(=O)O)cc3)ccc21` [Example 83, (R,E)-6-Phenyl-3-(4-((5,5,8,8-tetramethyl-5,6,7,8-tetrahydronaphthalen-2-yl)methoxy)phenyl)hex-4-enoic acid], the EC50 is 1000 to 10000 nM. On the same count and under the same terms, as for `CC1(C)CCC(C)(C)c2cc(COc3ccc([C@H](/C=C/Cc4ccccc4)CC(=O)O)cc3)ccc21` [Example 84, (S,E)-6-Phenyl-3-(4-((5,5,8,8-tetramethyl-5,6,7,8-tetrahydronaphthalen-2-yl)methoxy)phenyl)hex-4-enoic acid], the figure is 1000 to 10000 nM; as for `Cn1ccnc1[C@@H](CC(=O)O)c1ccc(OCc2ccc3c(c2)OCCO3)cc1` [Example 86, (S)-3-(4-((2,3-Dihydrobenzo[b][1,4]dioxin-6-yl)methoxy)phenyl)-3-(1-methyl-1H-imidazol-2-yl)propanoic acid], 1000 to 10000 nM.

The test system of another assay is Human islets. The assay is described as follows: Insulin secretion assay. It counts as cell-based. The conditions noted are these: human islet cells, KRBH with 11.2 mM glucose, insulin measured by SPA; read-out: EC50 of stimulated insulin secretion from islet cells. The procedure: Human islets were isolated from cadaveric donors. Islets were treated with trypsin (0.25% (w/v) and cells were seeded in 96-well plates containing 3,000 cells per well. Cells were cultured in Roswell Park Memorial Institute (RMPI) media containing 10% fetal bovine serum.
For determination of insulin secretion, media was removed from islet cells and replaced with Krebs-Ringer bicarbonate buffer containing 10 mM HEPES (KRBH) and 2 mM glucose. After one hour incubation, media was replaced with KRBH containing 11.2 mM glucose and test compounds. Insulin released into the medium from the islet cells was measured using scintillation proximity assay (SPA).
`CC1(C)CCC(C)(C)c2cc(COc3ccc(C(CC(=O)O)c4cncnc4)cc3)ccc21` (racemic) [Example 9, (R/S)-3-Pyrimidin-5-yl-3-[4-(5,5,8,8-tetramethyl-5,6,7,8-tetrahydro-naphthalen-2-ylmethoxy)-phenyl]-propionic acid]: the half-maximal effective concentration (EC50) is less than 1000 nM.

As for `Cn1cncc1[C@@H](CC(=O)O)c1ccc(OCc2ccc3c(c2)C(C)(C)CCC3(C)C)cc1` [Example 4, (S)-3-(1-methyl-1H-imidazol-5-yl)-3-(4-((5,5,8,8-tetramethyl-5,6,7,8-tetrahydronaphthalen-2-yl)methoxy)phenyl)propanoic acid], the EC50 was less than 1000 nM.

A word on the EC50: it is the midpoint of the concentration-response curve.

The values are drawn from patent US7687526B2, “Benzo-fused compounds for use in treating metabolic disorders” (Amgen Inc., priority 2006, dated 2010).
